Counter-ions that a name gives are not always drawn. Like-named read-outs stand apart in the source and are kept apart here.
What was measured:
[1] = system: Mycoplasma gallisepticum T-7-T (wild strain, tylosin-resistant); experiment: Anti-mycoplasma activity in vitro (MIC, broth dilution), strain T-7-T; format: cell-based; conditions: Mg T-7-T, 37° C., 7 days
Procedure: (§1) (1) Anti-mycoplasma activity test in vitro
(§2) MIC values of each of Tropolones were measured on the following strains according to the following method.
(§3) (a) Mycoplasma gallisepticum
(§4) T-7-T (wild strain, tylosin-resistant)
(§5) Medium: Chick PPLO broth supplemented with 20% equine serum (Eiken Kagaku Co., Ltd.)
(§6) Method: Broth dilution method
(§7) Inoculum: Culture incubated at 37° C. for 24-48 hr which is diluted with broth to 10^6 CCU/ml immediately before the use.
(§8) To 1.6 ml of the broth is added 0.2 ml of an agent which has been subjected to 2-fold dilution and then added 0.2 ml of inoculum, which is incubated at 37° C. for 7 days.

[2] = system: Mycoplasma gallisepticum T-7-T (wild strain, tylosin-resistant); experiment: Mycoplasma gallisepticum air-sac infection method in chicken, strain T-7-T;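 for Index of Isolation: index = (P×1 + Q×2 + R×3)/S with range 0 to 6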; format: in vivo, Mycoplasma gallisepticum; SPF chicken (white leghorn); conditions: 100 mg/kg × once oral, 10 mg/ml sol. b; for Change of air-sac, left: + (chickens) / Change of air-sac, left: ++ (chickens) / Change of air-sac, left: +++ (chickens) / Change of air-sac, left: - (chickens) / Change of air-sac, right: + (chickens) / Change of air-sac, right: ++ (chickens) / Change of air-sac, right: +++ (chickens) / Change of air-sac, right: - (chickens) / Isolation, L (left air-sac) / Isolation, R (right air-sac) / Isolation, T (trachea) / Mycoplasma Isolated Chickens: inoculum 10^2; for Index of Isolation: inoculum 10^2, range 0-6.0; for Index of Disease: inoculum 10^2, range 0-9.0
Procedure: (§9) (2) Test of Effectiveness Mycoplasma gallisepticum air-sac infection method
as §4
(§10) Inoculation: To the right air-sac of 9 days old SPF chicken (a white leghorn) which has abstained from water and feed one day before is inoculated 0.20-0.25 ml/chicken of fresh mycoplasma culture incubated for 24-48 hr and diluted with broth (usually 100 times). The concentration in Table 2 is shown in a unit of mg/ml.
(§11) Medium: Chick PPLO broth supplemented with 15% equine serum (Eiken Kagaku Co., Ltd.)
(§12) Administration: A compound of this invention dissolved or suspended in the following solution is orally and forcibly administered once by a cannula immediately after the infection.
(§13) Anatomization and Isolation of Microorganism: The chickens are anatomized 5 days after the infection, and the right and left air sacs are investigated whether they are attacked with a disease or not. The change caused by the disease is represented in four degrees; -: no change, +: slight, ++: medium and +++: serious. Microorganism is isolated from the right and left air-sacs and the trachea by using a sterilized applicator.
(§14) Judgement: Judgement is done through an index of an air-sac disease and an index of a microorganism-isolation.
(§15) Index of an air-sac-disease: First, indexes in the right and left air-sacs are separately calculated according to the following formula;
(§16) {degree of disease (0-3)×chickens}/anatomized chickens
(§17) and the index is calculated by the following formula;
(§18) (index of right air-sac)×1+(index of left air-sac)×2
(§19) Index of a microorganism isolation:
(§20) P: chickens from the right air-sac of which microorganism is isolated,
(§21) Q: chickens from the trachea of which microorganism is isolated,
(§22) R: chickens from the left air-sac of which microorganism is isolated, and
(§23) S: chickens investigated.

[3] = Acute toxicity test in chickens; format: in vivo, SPF chickens of layer type; conditions: 400 mg/kg or 200 mg/kg once oral, 2 weeks; for increase of weight: vs control group
Procedure: Acute toxicity tests on tropolone L-lysine salt and O-acetyltropolone were performed according to the following method.
The tests had been done on 15 days old SPF chickens of layer type (5 males and 5 females) for 2 weeks. The above two compounds suspended in 5% gum arabic are orally and forcibly administered once at a dose of 400 mg/kg or 200 mg/kg. To a control group is administered 5% gum arabic.

[4] = system: Mycoplasma gallisepticum S6 (standard strain); experiment: Anti-mycoplasma activity in vitro (MIC, broth dilution), strain S6; format: cell-based; conditions: Mg S6, 37° C., 7 days
Procedure: as §1, §2, §3, §5, §6, §7, §8

[5] = system: Mycoplasma gallisepticum S6 (standard strain); experiment: Mycoplasma gallisepticum air-sac infection method in chicken, strain S6; format: in vivo, Mycoplasma gallisepticum; SPF chicken (white leghorn)
Procedure: as §9, §10, §11, §12, §13, §14, §15, §16, §17, §18, §19, §20, §21, §22, §23

[6] = system: Mycoplasma gallisepticum MR-1 (wild strain, tylosin-resistant); experiment: Anti-mycoplasma activity in vitro (MIC, broth dilution), strain MR-1; format: cell-based; conditions: Mg MR-1, 37° C., 7 days
Procedure: as §1, §2, §3
MR-1 (wild strain, tylosin-resistant)
as §5, §6, §7, §8

[7] = system: Mycoplasma hyopneumoniae ST-11 (standard strain); experiment: Anti-mycoplasma activity in vitro (MIC, broth dilution), strain ST-11; format: cell-based; conditions: Mh ST-11
Procedure: as §1, §2
(b) Mycoplasma hyopneumoniae
Strain: ST-11 (standard strain)
Medium: 850 ml of Hanks' solution supplemented with 0.5% lactoalbumin, 50 ml of 25% yeast, 100 ml of equine serum and 4-6 ml of 0.5% phenol red (pH 7.4-7.6)
as §6
Inoculum: Culture which is incubated for 3-4 days and diluted 10 times with the broth if color of the broth becomes yellow then. If it needs over 4 days until color of the broth becomes yellow, it is further subcultured. This is diluted 10 times with the broth to give inoculum.
Assay is done in the same manner as in the above (a).

[8] = Mycoplasmoides gallisepticum, 168 h, read-out: MIC
[9] = 100 mg/kg × once oral, 10 mg/ml sol. b, inoculum 1.2 × 10^6
[10] = 100 mg/kg × once oral, 10 mg/ml sol. b, inoculum 1.2 × 10^6, range 0-6.0
[11] = 100 mg/kg × once oral, 10 mg/ml sol. b, inoculum 1.2 × 10^6, range 0-9.0
[12] = 200 mg/kg × once oral, 20 mg/ml sol. c, inoculum 6.3 × 10^4
[13] = 200 mg/kg × once oral, 20 mg/ml sol. b, inoculum 1.18 × 10^6

CC(=O)Oc1cccccc1=O [Compound 13, O-Acetyltropolone]
8: Change of air-sac, left: - (chickens) [2] | Change of air-sac, right: - (chickens) [2] | Change of air-sac, left: - (chickens) [5, 9]
0: Change of air-sac, left: + (chickens) [2] | Change of air-sac, left: ++ (chickens) [2] | Change of air-sac, left: +++ (chickens) [2] | Change of air-sac, right: + (chickens) [2] | Change of air-sac, right: ++ (chickens) [2] | Change of air-sac, right: +++ (chickens) [2] | Index of Disease [2] | Change of air-sac, left: + (chickens) [5, 9] | Change of air-sac, left: ++ (chickens) [5, 9] | Change of air-sac, left: +++ (chickens) [5, 9] | Change of air-sac, right: ++ (chickens) [5, 9] | Change of air-sac, right: +++ (chickens) [5, 9] | Change of air-sac, left: + (chickens) [5, 12] | Change of air-sac, left: ++ (chickens) [5, 12] | Change of air-sac, left: +++ (chickens) [5, 12] | Change of air-sac, right: + (chickens) [5, 12] | Change of air-sac, right: ++ (chickens) [5, 12] | Change of air-sac, right: +++ (chickens) [5, 12] | Isolation, L (left air-sac) [5, 12] | Isolation, R (right air-sac) [5, 12] | Mycoplasma Isolated Chickens [5, 12] | Index of Disease ([5]; 200 mg/kg × once oral, 20 mg/ml sol. c, inoculum 6.3 × 10^4, range 0-9.0) | Index of Isolation ([5]; 200 mg/kg × once oral, 20 mg/ml sol. c, inoculum 6.3 × 10^4, trachea ND, range 0-6.0)
7: Change of air-sac, right: - (chickens) [5, 9]
0.1: Index of Disease [5, 11]
0.90: Index of Isolation [2]
1: Isolation, L (left air-sac) [2] | Isolation, R (right air-sac) [2] | Change of air-sac, right: + (chickens) [5, 9]
1.75: Index of Isolation [5, 10]
0.78 µg/mL: MIC [1, 8] | MIC [6, 8]
5: Change of air-sac, left: - (chickens) [5, 12] | Change of air-sac, right: - (chickens) [5, 12]
2: Isolation, T (trachea) [2] | Mycoplasma Isolated Chickens [2] | Isolation, L (left air-sac) [5, 9] | Isolation, R (right air-sac) [5, 9]
3: Isolation, T (trachea) [5, 9] | Mycoplasma Isolated Chickens [5, 9]
0.39 µg/mL: MIC [4, 8]
none of chickens died: deaths [3]
a little inferior to the control-group: increase of weight [3]

O=c1cccccc1O [Compound 11, Tropolone L-lysine salt]
4: Isolation, R (right air-sac) [2] | Isolation, R (right air-sac) [5, 13] | Mycoplasma Isolated Chickens [5, 13]
0.8: Index of Isolation ([5]; 200 mg/kg × once oral, 20 mg/ml sol. b, inoculum 1.18 × 10^6, range 0-6.0)
8: Change of air-sac, left: - (chickens) [2] | Change of air-sac, right: - (chickens) [2] | Change of air-sac, left: - (chickens) [5, 9] | Change of air-sac, right: - (chickens) [5, 9]
1: Isolation, L (left air-sac) [2] | Isolation, T (trachea) [5, 9]
none of chickens died: deaths [3]
0: Change of air-sac, left: + (chickens) [2] | Change of air-sac, left: ++ (chickens) [2] | Change of air-sac, left: +++ (chickens) [2] | Change of air-sac, right: + (chickens) [2] | Change of air-sac, right: ++ (chickens) [2] | Change of air-sac, right: +++ (chickens) [2] | Index of Disease [2] | Change of air-sac, left: + (chickens) [5, 9] | Change of air-sac, left: ++ (chickens) [5, 9] | Change of air-sac, left: +++ (chickens) [5, 9] | Change of air-sac, right: + (chickens) [5, 9] | Change of air-sac, right: ++ (chickens) [5, 9] | Change of air-sac, right: +++ (chickens) [5, 9] | Isolation, R (right air-sac) [5, 9] | Index of Disease [5, 11] | Change of air-sac, left: + (chickens) [5, 13] | Change of air-sac, left: ++ (chickens) [5, 13] | Change of air-sac, left: +++ (chickens) [5, 13] | Change of air-sac, right: + (chickens) [5, 13] | Change of air-sac, right: ++ (chickens) [5, 13] | Change of air-sac, right: +++ (chickens) [5, 13] | Isolation, L (left air-sac) [5, 13] | Isolation, T (trachea) [5, 13] | Index of Disease ([5]; 200 mg/kg × once oral, 20 mg/ml sol. b, inoculum 1.18 × 10^6, range 0-9.0)
0.78 µg/mL: MIC [1] | MIC [6] | MIC [7]
equal to the control group: increase of weight [3]
0.54: Index of Isolation [5, 10]
2.90: Index of Isolation [2]
2: Isolation, L (left air-sac) [5, 9] | Mycoplasma Isolated Chickens [5, 9]
5: Isolation, T (trachea) [2] | Mycoplasma Isolated Chickens [2] | Change of air-sac, left: - (chickens) [5, 13] | Change of air-sac, right: - (chickens) [5, 13]
0.39 µg/mL: MIC [4]

O=c1c(O)ccccc1Br [Compound 24, 7-Bromotropolone]
5: Isolation, T (trachea) [2] | Mycoplasma Isolated Chickens [2]
4: Isolation, L (left air-sac) [5, 9]
0.39 µg/mL: MIC [4, 8]
0: Change of air-sac, left: + (chickens) [2] | Change of air-sac, left: ++ (chickens) [2] | Change of air-sac, left: +++ (chickens) [2] | Change of air-sac, right: + (chickens) [2] | Change of air-sac, right: ++ (chickens) [2] | Change of air-sac, right: +++ (chickens) [2] | Index of Disease [2] | Change of air-sac, left: + (chickens) [5, 9] | Change of air-sac, left: ++ (chickens) [5, 9] | Change of air-sac, left: +++ (chickens) [5, 9] | Change of air-sac, right: + (chickens) [5, 9] | Change of air-sac, right: ++ (chickens) [5, 9] | Change of air-sac, right: +++ (chickens) [5, 9] | Index of Disease [5, 11]
2.80: Index of Isolation [2]
7: Isolation, T (trachea) [5, 9] | Mycoplasma Isolated Chickens [5, 9]
3: Isolation, L (left air-sac) [2] | Isolation, R (right air-sac) [2]
1.56 µg/mL: MIC [6, 8]
0.2 µg/mL: MIC ([7]; Mesomycoplasma hyopneumoniae, read-out: MIC)
8: Change of air-sac, left: - (chickens) [2] | Change of air-sac, right: - (chickens) [2] | Change of air-sac, left: - (chickens) [5, 9] | Change of air-sac, right: - (chickens) [5, 9]
2.70: Index of Isolation [5, 10]
0.78 µg/mL: MIC [1, 8]
1: Isolation, R (right air-sac) [5, 9]

From patent publication US4950686A, “Anti-mycoplasma agent” (Shionogi & Co., Ltd., priority 1986, dated 1990)
